Results on seven compounds are retold here after US9745282B2, “Indoline compounds as aldosterone synthase inhibitors” (Merck Sharp & Dohme Corp., priority 2012, dated 2017).

Some results are limits rather than exact numbers.

One experiment addresses human CYP11B2 (Homo sapiens (Human), UniProt P19099). Put plainly: V79-Human-CYP11B2 cell assay, modified protocol. Format: cell-based. Conditions: V79 cells expressing human CYP11B2. The procedure: (§1) V79 cell lines stably expressing the either the human CYP11B2 or the human CYP11B1 enzyme were generated using a standard transfection protocol. V79 cells were transfected with plasmids pTriEx3-Hygro-hCyp11B2 or pTriEx3-Hygro-hCyp11B1 using Lipofectamine2000 reagent. V79 cells that stably express the human CYP11B2 or human CYP11B1 enzyme were selected for and maintained in DMEM supplemented with 10% FBS and 400 μg/mL hygromycin for 2 weeks. Single cell clones were generated by infinite dilution in DMEM supplemented with 10% FBS and 400 μg/mL hygromycin until single colonies were obtained. […] For testing of inhibitors, cells were harvested at 80% confluency with 0.05% Trypsan-EDTA, washed once in PBS, and reconstituted in DMEM+0.1% BSA media at a cell concentration of 600,000 cells/mL for the CYP11B2 assay and 280,000 cells/mL for the CYP11B1 assay. 25 μL of cells were added to a 384 well tissue culture treated plate and mixed with 0.3 μL of inhibitor or DMSO (1% final DMSO concentration) for 1 hour at 37° C., 5% CO2. After pre-incubation with inhibitor, the reaction was initiated by adding 5 μL of substrate (final concentration of 125 nM 11-deoxycorticosterone for the CYP11B2 assay or 250 nM 11-deoxycortisol for the CYP11B1 assay). The reaction was carried out for 3 hours at 37° C., 5% CO2 and was stopped by harvesting the supernatants. The amount of product in the supernatant (aldosterone for CYP11B2 assay and cortisol for the CYP11B1 assay) was measured using HTRF-based assay kit (Aldosterone HTRF-CisBio#64ALDPEB, Cortisol HTRF-CisBio #63IDC002-CORT). IC50s for the inhibitor were determined by plotting the amount of product formed against the concentration of inhibitor using sigmoidal dose-response curve (variable slope) fit in GraphPad.
(§2) For the CYP11B2 assay, cells were reconstituted in DMEM+0.1% BSA media at a cell concentration of 600,000 cells/mL and for the CYP11B1 assay cells were reconstituted in DMEM+0.1% BSA media at a cell concentration of 280,000 cells/mL. 25 μl of cells were added to a 384 well tissue culture treated plate and mixed with […] or DMSO (1% final DMSO concentration) for 1 hour at 37° C., 5% CO2.

The target of a further experiment is human CYP11B1 (Homo sapiens (Human), UniProt P15538). Kind of experiment: V79-Human-CYP11B1 cell assay, modified protocol. Format: cell-based. Conditions: V79 cells expressing human CYP11B1. The protocol: as §1, §2

Broadly, the IC50 is the midpoint of a concentration-inhibition curve. Read a low IC50 as inhibition by little substance.

Sequence of human CYP11B2 (P19099 25-503): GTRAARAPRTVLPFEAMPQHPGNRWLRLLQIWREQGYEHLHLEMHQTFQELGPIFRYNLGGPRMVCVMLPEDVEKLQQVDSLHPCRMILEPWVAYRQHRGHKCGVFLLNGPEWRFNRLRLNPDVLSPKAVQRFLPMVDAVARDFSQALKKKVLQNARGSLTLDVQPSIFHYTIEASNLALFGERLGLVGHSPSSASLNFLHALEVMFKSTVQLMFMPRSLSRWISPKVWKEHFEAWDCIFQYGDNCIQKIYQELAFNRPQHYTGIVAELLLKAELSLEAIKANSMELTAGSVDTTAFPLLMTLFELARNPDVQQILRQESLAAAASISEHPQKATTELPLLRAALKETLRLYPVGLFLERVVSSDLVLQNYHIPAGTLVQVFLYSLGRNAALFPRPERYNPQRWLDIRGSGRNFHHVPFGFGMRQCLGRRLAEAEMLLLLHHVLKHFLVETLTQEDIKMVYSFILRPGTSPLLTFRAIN
Sequence of human CYP11B1 (P15538 25-503): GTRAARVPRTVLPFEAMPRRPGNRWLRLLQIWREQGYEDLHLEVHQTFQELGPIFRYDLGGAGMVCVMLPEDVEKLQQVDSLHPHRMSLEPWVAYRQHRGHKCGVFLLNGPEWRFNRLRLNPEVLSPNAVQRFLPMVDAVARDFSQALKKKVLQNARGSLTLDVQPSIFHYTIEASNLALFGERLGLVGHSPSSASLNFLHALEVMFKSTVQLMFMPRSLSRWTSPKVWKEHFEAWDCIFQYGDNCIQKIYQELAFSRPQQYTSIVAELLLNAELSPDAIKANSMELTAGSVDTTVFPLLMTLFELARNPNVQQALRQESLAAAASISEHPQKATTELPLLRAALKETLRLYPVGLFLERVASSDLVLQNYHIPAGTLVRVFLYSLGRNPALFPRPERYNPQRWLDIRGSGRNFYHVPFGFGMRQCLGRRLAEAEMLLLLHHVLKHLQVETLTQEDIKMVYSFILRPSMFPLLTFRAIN

Regarding `O=C(Cc1ccccc1)N1CCc2cc(-c3cccnc3)ccc21` [Example 26, 1-(Phenylacetyl)-5-pyridin-3-yl-2,3-dihydro-1H-indole], the results for the IC50 against human CYP11B2 and against human CYP11B1 were 3070 nM and > 5000 nM, respectively.
For `CCC(=O)N1CCc2cc(-c3cncc4ccccc34)ccc21` [Example 29, 4-(1-propanoyl-2,3-dihydro-1H-indol-5-yl)isoquinoline], in that order: 2.8 nM and 516 nM.
For `O=C(C1CC1)N1CCc2cc(-c3cncc4ccccc34)ccc21` [Example 31, 4-[1-(cyclopropyl-carbonyl)-2,3-dihydro-1H-indol-5-yl]isoquinoline], the IC50 was determined as 152 nM against human CYP11B2 and 6090 nM on human CYP11B1.
Consider `CC(=S)N1CCc2cc(-c3cccnc3)ccc21` [Example 34, 1-(5-(pyridin-3-yl)indolin-1-yl)ethanethione], for which the IC50 at human CYP11B2 was 6 nM; on human CYP11B1, 3380 nM.
Turning to `CC(=O)n1ccc2cc(-c3cccnc3)ccc21` [Example 50, 1-Acetyl-5-pyridin-3-yl-1H-indole], the IC50 at human CYP11B2 is 23 nM; at human CYP11B1, 1380 nM.
Regarding `COc1cncc(-c2ccc3c(c2)CCN3C(C)=O)c1` [Example 54, 1-acetyl-5-(5-methoxypyridin-3-yl)-2,3-dihydro-1H-indole], the IC50 came to 16 nM on human CYP11B2 and 803 nM on human CYP11B1.
On the same counts, the results for `CC(=O)N1CCc2cc(-c3cnccc3C)ccc21` [Example 58, 1-acetyl-5-(4-methylpyridin-3-yl)-2,3-dihydro-1H-indole] are 2.2 nM and 366 nM.
